Starred links: 1 amine or outer side, 2 acyl side, 3 side chain; linkers in the order of their positions; H or OH if unused. Positions of bridges follow the written chain, without caps; N, C: chain ends. Non-standard residues stand in square brackets, D forms with d. Residues, ends and D or L forms follow the SMILES beside them. *: point of attachment. NMeAbu(3,3-F2-piperidino) = CN[C@@H](CCN1CCCC(F)(F)C1)C(=O)O; hPhe(3-Cl-4-CF3) = N[C@@H](CCc1ccc(C(F)(F)F)c(Cl)c1)C(=O)O; hPhe(3-F,4-CF3) = N[C@@H](CCc1ccc(C(F)(F)F)c(F)c1)C(=O)O; hPhe(3,4-Cl2) = N[C@@H](CCc1ccc(Cl)c(Cl)c1)C(=O)O; NMePhe(4-Cl) = CN[C@@H](Cc1ccc(Cl)cc1)C(=O)O; NMePhe(4-Me) = CN[C@@H](Cc1ccc(C)cc1)C(=O)O; NMeNle(6-CHF2) = CN[C@@H](CCCCC(F)F)C(=O)O; hPhe(4-Cl) = N[C@@H](CCc1ccc(Cl)cc1)C(=O)O; NMedβ3hAla = C[C@H](CC(=O)[*:2])N(C)[*:1]; Phe(3-Br) = N[C@@H](Cc1cccc(Br)c1)C(=O)O; NMeCha = CN[C@@H](CC1CCCCC1)C(=O)O; NMeChg = CN[C@H](C(=O)O)C1CCCCC1; NMeI = CC[C@H](C)[C@H](NC)C(=O)O; NMeD = CN[C@@H](CC(=O)O)C(=O)O; NMeL = CN[C@@H](CC(C)C)C(=O)O; Chg = N[C@H](C(=O)O)C1CCCCC1; d(β3hP) = O=C(O)C[C@H]1CCCN1; NMeV = CN[C@H](C(=O)O)C(C)C; d(β3hA) = C[C@@H](N)CC(=O)O; Pip = O=C(O)[C@@H]1CCCCN1; NMeA = CN[C@@H](C)C(=O)O; NMeAib = CNC(C)(C)C(=O)O; Nle = CCCC[C@H](N)C(=O)O; Piperidide = C1CCN(*)CC1; Pyrrolidide = C1CCN(*)C1; Ac5c = NC1(C(=O)O)CCCC1; Aze = O=C(O)[C@@H]1CCN1; NcPrGly = O=C(O)CNC1CC1; Aib = CC(C)(N)C(=O)O; Sar = CNCC(=O)O

This experiment deals with T1, Kras and SOS1 (biotin-tagged human Kras loaded with GDP, His-tagged human SOS1) (Homo sapiens, UniProt P01116, G12D).
T1 construct: made in house; host or cells: E. coli (stated for Kras only)
T1 sequence (P01116 1-188 isoform P01116-2 G12D): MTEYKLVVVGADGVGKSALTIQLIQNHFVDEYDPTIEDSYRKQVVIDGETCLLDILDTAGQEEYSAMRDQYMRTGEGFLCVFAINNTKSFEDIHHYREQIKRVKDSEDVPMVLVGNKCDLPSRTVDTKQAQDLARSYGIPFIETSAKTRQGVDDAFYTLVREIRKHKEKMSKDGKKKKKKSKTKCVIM
Description: Protein-protein interaction inhibition between Kras and SOS1 (KrasGl2D-SOS PPI) using AlphaScreen. In kind it is binding. The settings on record: AlphaScreen; biotin-tagged human Kras loaded with GDP, His-tagged human SOS1; read-out: KRAS G12D-SOS PPI IC50. In short, it runs like this:
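Energy transfer from nickel-chelate donor beads bound to His-SOS1 to streptavidin acceptor beads bound to biotin-Kras, expressed in E. coli and loaded with GDP after purification, was monitored. Donors were excited at 680 nm; singlet oxygen reaching acceptors gave emission read at 520-620 nm.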
Consider `CCCC[C@@H]1NC(=O)[C@H](Cc2cccc(Br)c2)NC(=O)CN(C)C(=O)[C@H](Cc2ccc(Cl)cc2)N(C)C(=O)CN(C)C(=O)CN(C)C(=O)[C@H]([C@@H](C)CC)NC(=O)[C@H](CC(C)C)N(C)C(=O)C[C@@H](C(=O)N2CCCCC2)N(C)C(=O)[C@H](CC(C)C)NC(=O)C(C)(C)N(C)C1=O` [Compound 1404] ([NMeL]I[Sar][Sar][NMePhe(4-Cl)][Sar][Phe(3-Br)][Nle][NMeAib]L[NMeD]-Piperidide; lactam N-11), for which the IC50 was 0.017 µM.

`CC[C@H](C)[C@@H]1NC(=O)[C@H](CC(C)C)N(C)C(=O)C[C@@H](C(=O)N2CCCCC2)N(C)C(=O)[C@H](C(C)C)N(C)C(=O)C2(CCCC2)NC(=O)[C@@H]2CCCN2C(=O)[C@H](CCc2ccc(Cl)c(Cl)c2)NC(=O)CN(C)C(=O)[C@H](CC2CCCCC2)N(C)C(=O)[C@@H]2CCCCN2C(=O)CN(C)C1=O` [Compound 324] ([NMeL]I[Sar][Pip][NMeCha][Sar][hPhe(3,4-Cl2)]P[Ac5c][NMeV][NMeD]-Piperidide; lactam N-11): the IC50 is 0.38 µM. Regarding `CC[C@H](C)[C@@H]1NC(=O)[C@H](CC(C)C)N(C)C(=O)C[C@H]2CCCN2C(=O)[C@H](C2CCCCC2)N(C)C(=O)C2(CCCC2)NC(=O)[C@@H]2CCCN2C(=O)[C@H](CCc2ccc(C(F)(F)F)c(Cl)c2)NC(=O)CN(C)C(=O)[C@H](CC2CCCCC2)N(C)C(=O)CN(C)C(=O)CN(C)C1=O` [Compound 1185] (cyclo([Ac5c][NMeChg][d(β3hP)][NMeL]I[Sar][Sar][NMeCha][Sar][hPhe(3-Cl-4-CF3)]P)), the IC50 amounted to 0.011 µM. To `CCCC[C@@H]1NC(=O)[C@H](CCc2ccc(C(F)(F)F)c(Cl)c2)NC(=O)CN(C)C(=O)[C@H](Cc2ccc(Cl)cc2)N(C)C(=O)[C@@H]2CCN2C(=O)CN(C)C(=O)[C@H]([C@@H](C)CC)NC(=O)[C@@H]2CCCCN2C(=O)C[C@@H](C(=O)N2CCCCC2)N(C)C(=O)[C@H](CC(C)C)NC(=O)C(C)(C)N(C)C1=O` [Compound 352] ([Pip]I[Sar][Aze][NMePhe(4-Cl)][Sar][hPhe(3-Cl-4-CF3)][Nle][NMeAib]L[NMeD]-Piperidide; lactam N-11) belongs 0.0055 µM; to `CC[C@H](C)[C@@H]1NC(=O)[C@H](CC(C)C)N(C)C(=O)C[C@@H](C(=O)N2CCCCC2)N(C)C(=O)[C@H](C(C)C)N(C)C(=O)C2(CCCC2)NC(=O)[C@@H]2CCCN2C(=O)[C@H](CCc2ccc(Cl)cc2)NC(=O)CN(C)C(=O)[C@H](CC2CCCCC2)N(C)C(=O)CN(C)C(=O)[C@@H]2CCN2C1=O` [Compound 112] ([NMeL]I[Aze][Sar][NMeCha][Sar][hPhe(4-Cl)]P[Ac5c][NMeV][NMeD]-Piperidide; lactam N-11), 0.073 µM; to `CC[C@H](C)[C@@H]1NC(=O)[C@H](CC(C)C)N(C)C(=O)C[C@@H](C)NC(=O)[C@H](C(C)C)N(C)C(=O)C2(CCCC2)NC(=O)[C@@H]2CCCN2C(=O)[C@H](CCc2ccc(C(F)(F)F)c(Cl)c2)NC(=O)CN(C)C(=O)[C@H](CC2CCCCC2)N(C)C(=O)CN(C)C(=O)CN(C2CC2)C1=O` [Compound 542] (cyclo([Ac5c][NMeV][d(β3hA)][NMeL]I[NcPrGly][Sar][NMeCha][Sar][hPhe(3-Cl-4-CF3)]P)), 0.061 µM. To `CC[C@H](C)[C@@H]1NC(=O)[C@H](CC(C)C)N(C)C(=O)C[C@@H](C(=O)N(C)C)N(C)C(=O)[C@H]([C@@H](C)CC)N(C)C(=O)[C@H](C(C)C)NC(=O)[C@H](CCN2CCCC(F)(F)C2)N(C)C(=O)[C@H](CCc2ccc(C(F)(F)F)c(Cl)c2)NC(=O)CN(C)C(=O)[C@H](Cc2ccc(C)cc2)N(C)C(=O)[C@@H]2CCN2C(=O)[C@H](C)N(C)C1=O` [Compound 379] ([NMeL]I[NMeA][Aze][NMePhe(4-Me)][Sar][hPhe(3-Cl-4-CF3)][NMeAbu(3,3-F2-piperidino)]V[NMeI][NMeD]-NMe2; lactam N-11) belongs 0.013 µM. As for `CC[C@H](C)[C@@H]1NC(=O)[C@@H]2CCCCN2C(=O)C[C@@H](C)N(C)C(=O)[C@H](CC(C)C)NC(=O)C(C)(C)N(C)C(=O)[C@H](CC(C)C)NC(=O)[C@H](CCc2ccc(C(F)(F)F)c(F)c2)NC(=O)CN(C)C(=O)[C@H](CC2CCCCC2)N(C)C(=O)CN(C)C(=O)CN(C)C1=O` [Compound 649] (cyclo(I[Sar][Sar][NMeCha][Sar][hPhe(3-F,4-CF3)]L[NMeAib]L[NMedβ3hAla][Pip])), the IC50 came out at 0.36 µM. Regarding `CC(C)C[C@H]1C(=O)N[C@@H](C2CCCCC2)C(=O)N(C)CC(=O)N(C)CC(=O)N(C)[C@@H](CCCCC(F)F)C(=O)N(C)CC(=O)N[C@@H](CCc2ccc(C(F)(F)F)c(F)c2)C(=O)N(C)[C@@H](CC(C)C)C(=O)NC(C)(C)C(=O)N(C)[C@@H](CC(C)C)C(=O)N[C@H](C(=O)N2CCCC2)CC(=O)N1C` [Compound 1453] ([NMeL][Chg][Sar][Sar][NMeNle(6-CHF2)][Sar][hPhe(3-F,4-CF3)][NMeL][Aib][NMeL]D-Pyrrolidide; lactam N-11), the IC50 stood at 0.11 µM.

These data come from patent publication US12371454B2, “Cyclic peptide compound having Kras inhibitory action” (priority 2019, dated 2025).
